Columns and labels:
human RARγ = target: T1, human RARγ (Homo sapiens, UniProt P13631); test: Transcription-promoting activity via RAR (PLAP reporter in COS-1 cells), RAR-γ; type: cell-based; parameters: expressed in transfected cells; host or cells: COS-1 (African green monkey kidney), transient lipofection; conditions: Relative ED30: ED30 of all-trans-retinoic acid for each receptor = 1
T1 sequence (P13631 1-454): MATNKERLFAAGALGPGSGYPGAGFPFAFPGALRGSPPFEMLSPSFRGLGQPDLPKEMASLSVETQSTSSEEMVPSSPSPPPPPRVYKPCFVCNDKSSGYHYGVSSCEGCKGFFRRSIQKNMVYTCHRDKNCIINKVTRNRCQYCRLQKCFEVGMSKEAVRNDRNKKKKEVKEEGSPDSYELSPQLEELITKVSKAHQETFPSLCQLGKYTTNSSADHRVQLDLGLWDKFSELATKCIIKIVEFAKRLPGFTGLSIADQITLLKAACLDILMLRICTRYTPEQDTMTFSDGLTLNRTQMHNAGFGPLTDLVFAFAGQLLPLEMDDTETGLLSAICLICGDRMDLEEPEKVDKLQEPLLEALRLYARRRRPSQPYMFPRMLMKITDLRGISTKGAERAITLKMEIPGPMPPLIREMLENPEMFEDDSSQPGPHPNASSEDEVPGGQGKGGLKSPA
Procedure: (§1) A human RAR expression vector and a secretory alkali phosphatase (PLAP) gene vector (PLAP vector) having a response sequence integrated upstream for allowing RAR-bound PLAP to be expressed depending on ligand, were tentatively introduced into COS-1 (renal cell line derived from African green monkey). The PLAP, which was produced depending on ligand and secreted into a culture liquid, was measured by chemiluminescence techniques to examine the transcription-promoting activity of each test compound. Further, the ability of the test compound to promote the transcription of each receptor subtype was compared to determine the selectivity of the compound for RAR subtype.
(§2) 2.5×10^4 COS-1 cells were plated onto a 60-mm Petri dish, and after 4 days, the cells were transformed by lipofection with 4 μg expression vector for human RARα, RARβ or RARγ and 4 μg PLAP vector. After 1 day, the cells were recovered and plated at a density of 2×10^4 cells/well on a 96-well culture plate. After 4 hours, the medium was exchanged with a charcoal treated FBS-containing medium, then a diluted solution of all-trans-retinoic acid or a test compound was added thereto, and after 36 hours, the supernatant was recovered from the cell culture. The recovered sample was treated for 10 minutes at 65° C. to eliminate unspecific activity. 15 μl of the sample was mixed with 60 μl of 28 mM sodium carbonate buffer (pH 10) and reacted with 75 μl of a chemifluorescent substrate Smilight™ (Sumitomo Metal Industries, Ltd.) at 37° C. for 30 minutes to determine the […].
(§3) The concentration (ED30) of each test compound showing 30% activity, where it was assumed that the average transcriptional activity induced by and 3 μM all-trans-retinoic acid was 100%, was determined. Then, the relative ED30 of each compound, where it was assumed that the ED30 of all-trans-retinoic acid for each receptor was 1, is shown as Relative ED30* in Tables 4-1 and 4-2.

human RARα = target: T2, human RARα (Homo sapiens, UniProt P10276); test: Transcription-promoting activity via RAR (PLAP reporter in COS-1 cells), RAR-α; type: cell-based; parameters: expressed in transfected cells; host or cells: COS-1 (African green monkey kidney), transient lipofection; conditions: Relative ED30: ED30 of all-trans-retinoic acid for each receptor = 1
T2 sequence (P10276 1-462): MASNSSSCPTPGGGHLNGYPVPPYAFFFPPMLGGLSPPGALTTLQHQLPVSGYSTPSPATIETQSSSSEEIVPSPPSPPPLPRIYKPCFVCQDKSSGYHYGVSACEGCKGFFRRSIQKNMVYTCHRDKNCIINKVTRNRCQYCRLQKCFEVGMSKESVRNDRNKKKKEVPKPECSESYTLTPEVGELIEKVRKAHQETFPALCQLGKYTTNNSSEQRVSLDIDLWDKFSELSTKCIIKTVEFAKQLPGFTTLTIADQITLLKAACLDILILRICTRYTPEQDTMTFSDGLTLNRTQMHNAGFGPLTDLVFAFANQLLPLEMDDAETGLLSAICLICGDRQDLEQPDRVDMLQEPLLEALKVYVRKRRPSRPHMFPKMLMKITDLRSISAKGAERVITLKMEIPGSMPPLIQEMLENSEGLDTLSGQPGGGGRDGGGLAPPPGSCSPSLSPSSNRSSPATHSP
Procedure: as §1, §2, §3

human RARβ = target: T3, human RARβ (Homo sapiens, UniProt P10826); test: Transcription-promoting activity via RAR (PLAP reporter in COS-1 cells), RAR-β; type: cell-based; parameters: expressed in transfected cells; host or cells: COS-1 (African green monkey kidney), transient lipofection; conditions: Relative ED30: ED30 of all-trans-retinoic acid for each receptor = 1
T3 sequence (P10826 1-455): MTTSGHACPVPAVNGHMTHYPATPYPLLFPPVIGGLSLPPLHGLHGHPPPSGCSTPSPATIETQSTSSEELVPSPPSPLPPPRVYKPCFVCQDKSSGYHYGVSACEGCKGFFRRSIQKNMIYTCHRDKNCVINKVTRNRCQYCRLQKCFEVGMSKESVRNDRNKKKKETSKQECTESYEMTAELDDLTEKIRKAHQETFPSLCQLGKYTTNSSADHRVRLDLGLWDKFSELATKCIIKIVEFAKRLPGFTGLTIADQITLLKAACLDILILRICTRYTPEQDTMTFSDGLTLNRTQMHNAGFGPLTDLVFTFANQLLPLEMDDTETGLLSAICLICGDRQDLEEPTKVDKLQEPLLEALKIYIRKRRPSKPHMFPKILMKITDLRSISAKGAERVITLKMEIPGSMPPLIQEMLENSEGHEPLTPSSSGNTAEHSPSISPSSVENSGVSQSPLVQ
Procedure: as §1, §2, §3

[1] = tested on: accelerated Masugi nephritis; test: Rat model with accelerated Masugi nephritis (proteins excreted in urine for 24 hours); type: in vivo, Sprague-Dawley strain rats; conditions: dose 0.3 mg/kg, oral once every day; compared with the control group; 0.3 mg/kg
Procedure: Sprague-Dawley strain rats were immunized by subcutaneously administering rabbit γ-globulin in a dose of 4 mg/rat along with Freund's complete adjuvant into the bottoms of their both hind legs. On the 5th day after the rats were immunized, 1 ml of anti-rat glomerular basement membrane rabbit serum diluted 6- or 8-fold was administered via tail veins into the animals. On the 8th day, the rats were forced to be orally administered 8 ml sterilized water and then placed in a metabolism cage, and their urine was collected for 24 hours during which the animals were allowed neither food nor water. As the indicator of the model with accelerated Masugi nephritis, the amount of proteins excreted in urine for 24 hours was used.
(§4) The medium was administered into the control group.

[2] = tested on: anti-rabbit γ-globulin IgG2a antibody titer; test: Rat model producing antibody (anti-rabbit γ-globulin antibody titer in serum, ELISA); type: in vivo, Sprague-Dawley strain rats; conditions: dose 0.3 mg/kg oral once every day for 14 days; 14th day after immunization
Procedure: Sprague-Dawley strain rats were immunized by subcutaneously administering rabbit γ-globulin in a dose of 4 mg/rat along with Freund's complete adjuvant into the bottoms of their both hind legs. On the 14th day after the rats were immunized, blood was collected from their tail veins and examined for anti-rabbit γ-globulin antibody titer in serum by the ELISA method.
The test compounds A, B, C and D were suspended respectively in 0.5% aqueous methyl cellulose solution and orally administered once every day for 14 days from the day on which the animals were immunized with rabbit γ-globulin. The medium was administered into the control group.

anti-ss DNA antibody = test: Mouse model with spontaneous onset of SLE: production of anti-ss DNA antibody; type: in vivo, female (NZB×NZW) F1 mice
Procedure: (§5) In this experiment, female (NZB×NZW) F1 mice were used. Administration of each test compound was initiated at the age of 16 weeks, and blood was collected at predetermined intervals from the orbital venous plexus of the animals under anesthesia with ether and examined for anti-DNA (single-stranded chain: ss, double stranded chain: ds) antibody titer in serum. Further, urine was collected and measured for urine protein.
as §4

[3] = tested on: albuminuria in (NZB×NZW)F1 mice; test: Mouse model with spontaneous onset of SLE: urine protein / onset of albuminuria; type: in vivo, female (NZB×NZW) F1 mice; conditions: for Number of animals with Concentration of Urine Protein (mg/ml) <0.3 / Number of animals with Concentration of Urine Protein (mg/ml) >0.3 / Number of animals with Concentration of Urine Protein (mg/ml) >1 / Number of animals with Concentration of Urine Protein (mg/ml) >3 / Number of animals with Concentration of Urine Protein (mg/ml) >10: after 18 weeks of administration (34-week-old), 8 animals
From the text: as §5
The test compounds A, B and D were suspended in 0.5% aqueous methyl cellulose solution and orally administered daily once into the animals for 6 days/week for 18 weeks. The medium was administered into the control group.
The effect of each compound on the onset of albuminuria after 18 weeks of administration (in 34-week-old animals) is shown in Table 2.

anti-ds DNA antibody = test: Mouse model with spontaneous onset of SLE: production of anti-ds DNA antibody; type: in vivo, female (NZB×NZW) F1 mice; conditions: 50 mg/kg; examined in the same manner
Procedure: as §5, §4

[4] = tested on: anti-dinitrophenyl (DNP) IgG2a antibody titer; test: Mouse model producing antibody (anti-DNP IgG2a antibody titer in serum, ELISA); type: in vivo, BALB/c mice; conditions: dose 0.1 mg/kg oral once every day for 10 days; 10th day after immunization
Procedure: BALB/c mice were immunized by administering dinitrophenylated keyhole limpet hemocyanin (DNP-KLH) as antigen intraperitoneally into them in a dose of 100 μg/mouse along with Freund's complete adjuvant. On the 10th day after the day on which the mice were immunized, blood was collected from the orbital venous plexus of the animals under anesthesia with ether and examined for anti-dintrophenyl (DNP) IgG2a antibody titer in serum by the ELISA method.
The test compounds B, E, F, G and H were suspended in 0.5% aqueous methyl cellulose solution and orally administered into the animals once every day for 10 days from the day when the animals were immunized with DNP-KLH. The medium was administered into the control group.

[5] = dose 0.03 mg/kg, after 18 weeks of administration

COCc1cc2c(cc1-c1ccc(-c3ccc(C(=O)O)cc3)[nH]1)C(C)(C)CCC2(C)C [drawing 30]
Transcription promoting activity ED30* RAR-γ (human RARγ): 62 | Transcription promoting activity ED30* RAR-α (human RARα): 1.9 | Transcription promoting activity ED30* RAR-β (human RARβ): 29

CC1(C)CCC(C)(C)c2nc(-c3ccc(-c4ccc(C(=O)O)cc4)[nH]3)cnc21 [drawing 26]
Transcription promoting activity ED30* RAR-γ (human RARγ): 1.9 | Transcription promoting activity ED30* RAR-α (human RARα): 0.21 | Transcription promoting activity ED30* RAR-β (human RARβ): 1.4

Cc1ccc(C)c2c(F)c(-c3ccc(-c4ccc(C(=O)O)cc4)[nH]3)oc12 [Compound C, 4-{2-[5-(3-fluoro-4,7-dimethylbenzofuran-2-yl)pyrrolyl]}benzoic acid]
Degree of Inhibition of Albuminuria (%) [1]: 87.7% | effect on anti-rabbit γ-globulin IgG2a antibody titer [2]: inhibited significantly

cyclosporin A [reference compound]
inhibition of production of anti-ss DNA antibody (anti-ss DNA antibody; 50 mg/kg, examined in the same manner, significant): about 85% | Number of animals with Concentration of Urine Protein (mg/ml) <0.3 ([3]; dose 50 mg/kg): 5 | Number of animals with Concentration of Urine Protein (mg/ml) >0.3 ([3]; dose 50 mg/kg): 1 | Number of animals with Concentration of Urine Protein (mg/ml) >1 ([3]; dose 50 mg/kg): 2 | Number of animals with Concentration of Urine Protein (mg/ml) >3 ([3]; dose 50 mg/kg): 0 | Number of animals with Concentration of Urine Protein (mg/ml) >10 ([3]; dose 50 mg/kg): 0 | onset of albuminuria (in words) ([3]; dose 50 mg/kg, not statistically significant): showed inhibition | inhibition of production of anti-ds DNA antibody (in words) (anti-ds DNA antibody): did not inhibit

CC1CCCN(C)c2ncc(-c3ccc(-c4ccc(C(=O)O)cc4)[nH]3)nc21 (stereo not shown) [drawing 28]
Transcription promoting activity ED30* RAR-γ (human RARγ): 20 | Transcription promoting activity ED30* RAR-α (human RARα): 1.4 | Transcription promoting activity ED30* RAR-β (human RARβ): 7.4

CCn1nc(-c2ccc(-c3ccc(C(=O)O)cc3)[nH]2)cc1C(C)C [drawing 29]
Transcription promoting activity ED30* RAR-γ (human RARγ): 89 | Transcription promoting activity ED30* RAR-α (human RARα): 0.85 | Transcription promoting activity ED30* RAR-β (human RARβ): 14

O=C(O)c1ccc(-c2ccc(-c3cc4c(C(F)(F)F)ccc(F)c4o3)[nH]2)cc1 [Compound B, 4-{2-[5-(7-fluoro-4-trifluoromethylbenzofuran-2-yl)pyrrolyl]}benzoic acid]
inhibition of production of anti-ss DNA antibody (in words) (anti-ss DNA antibody; 0.03 mg/kg oral, after 16 weeks of administration): significant inhibition | Degree of Inhibition of Albuminuria (%) [1]: 90.7% | onset of albuminuria (in words) [3, 5]: complete inhibition | Number of animals with Concentration of Urine Protein (mg/ml) <0.3 ([3]; dose 0.03 mg/kg): 8 | Number of animals with Concentration of Urine Protein (mg/ml) >0.3 ([3]; dose 0.03 mg/kg): 0 | Number of animals with Concentration of Urine Protein (mg/ml) >1 ([3]; dose 0.03 mg/kg): 0 | Number of animals with Concentration of Urine Protein (mg/ml) >3 ([3]; dose 0.03 mg/kg): 0 | Number of animals with Concentration of Urine Protein (mg/ml) >10 ([3]; dose 0.03 mg/kg): 0 | effect on anti-DNP IgG2a [4]: significantly inhibited | effect on anti-rabbit γ-globulin IgG2a antibody titer [2]: inhibited significantly

CC1(C)CCCc2ncc(-c3ccc(-c4ccc(C(=O)O)cc4)[nH]3)nc21 [drawing 27]
Transcription promoting activity ED30* RAR-γ (human RARγ): 170 | Transcription promoting activity ED30* RAR-α (human RARα): 0.2 | Transcription promoting activity ED30* RAR-β (human RARβ): 11

C[Si](C)(C)c1cc(C(=O)Nc2ccc(C(=O)O)cc2)cc([Si](C)(C)C)c1 [drawing 31]
Transcription promoting activity ED30* RAR-γ (human RARγ): 7800 | Transcription promoting activity ED30* RAR-α (human RARα): 6 | Transcription promoting activity ED30* RAR-β (human RARβ): 420

CCc1ccc(C)c2cc(-c3ccc(-c4ccc(C(=O)O)cc4)[nH]3)oc12 [Compound D, 4-{2-[5-(7-ethyl-4-methylbenzofuran-2-yl)pyrrolyl]}benzoic acid]
Degree of Inhibition of Albuminuria (%) [1]: 80.3% | onset of albuminuria (in words) [3, 5]: complete inhibition | Number of animals with Concentration of Urine Protein (mg/ml) <0.3 ([3]; dose 0.03 mg/kg): 8 | Number of animals with Concentration of Urine Protein (mg/ml) >0.3 ([3]; dose 0.03 mg/kg): 0 | Number of animals with Concentration of Urine Protein (mg/ml) >1 ([3]; dose 0.03 mg/kg): 0 | Number of animals with Concentration of Urine Protein (mg/ml) >3 ([3]; dose 0.03 mg/kg): 0 | Number of animals with Concentration of Urine Protein (mg/ml) >10 ([3]; dose 0.03 mg/kg): 0 | effect on anti-rabbit γ-globulin IgG2a antibody titer [2]: inhibited significantly
